Experimental findings from ChEMBL document CHEMBL1770110, “Pyrimido[4,5-d]azepines as potent and selective 5-HT2C receptor agonists: design, synthesis, and evaluation of PF-3246799 as a treatment for urinary incontinence” (Bioorg Med Chem Lett, 2011) are described below.

Usually Vd stands for a proportionality between amount in the body and measured concentration, not a real space. A lower Vd goes with confinement near the circulation. One may read the microsomal CLint as the capacity of the preparation to metabolise the compound, expressed as a volume cleared per time. The low end stands for slow turnover, the high end for rapid turnover. As a reminder, the bioavailability is the share of a dose that reaches the circulation, judged against a reference dose that is usually intravenous. The low end stands for little systemic uptake, the high end for much systemic uptake. The pKa is the pH at which an ionisable group is half protonated. A lower pKa goes with a stronger acid or weaker base. Usually hepatocyte CLint stands for the rate of metabolic loss divided by the concentration. A high value points to faster metabolism. What is called AUC is the area under the concentration-time curve, a measure of exposure. Low readings indicate low exposure, high ones high exposure. What is called Tmax is the time from dosing to the highest level. Usually Cmax stands for the maximum level reached in the sampled fluid or tissue. Usually clearance stands for the volume of plasma or blood freed of the substance per unit of time. Low values mean inefficient removal, high ones efficient removal.

Bounds are passed on as bounds.

Data set [1] is described as follows: Volume of distribution in CD rat at 1 mg/kg, iv administered as single bolus dose. It is filed as ADME, organism-based. Further details: dose 1 mg/kg, route intravenous. The conditions noted are these: in vivo.
Data set [2] can be described thus: Intrinsic clearance in rat liver microsomes. The class given is ADME, Microsome. A general note: Liver microsomes are a subcellular fraction often used to study metabolism.
Data set [3] is described as follows: Intrinsic clearance in human liver microsomes. The class given is ADME, Microsome.
A short description of data set [4]: Oral bioavailability in CD rat at 2 mg/kg administered as single dose. It is filed as ADME, organism-based. The settings on record: in vivo.
Data set [5] in a line: Intrinsic clearance in dog liver microsomes. It is filed as ADME, Canis lupus familiaris, Microsome.
Data set [6] can be described thus: Elimination half life in CD rat at 1 mg/kg, iv administered as single bolus dose. It is filed as ADME, organism-based. Further details: dose 1 mg/kg, route intravenous. The settings on record: in vivo, read-out: beta t1/2 (converted).
Data set [7] can be described thus: Dissociation constant, pKa of the compound. It is filed as physicochemical.
Data set [8] can be described thus: Intrinsic clearance in dog hepatocytes assessed per 10^6 cells. The class given is ADME, cell-based, Canis lupus familiaris, Liver, Hepatocyte.
Data set [9] can be described thus: Intrinsic clearance in rat hepatocytes assessed per 10^6 cells. The class given is ADME, cell-based, Liver, Hepatocyte.
For a further data set, the system named is Rattus norvegicus. As to the kind of experiment: AUC (0 to infinity) in CD rat at 2 mg/kg, po administered as single dose. It is filed as ADME, organism-based, Plasma. Also on record: time infinity, dose 2 mg/kg, route oral. The settings on record: in vivo.
The nature of data set [10]: Tmax in CD rat at 2 mg/kg, po administered as single dose. The class given is ADME, organism-based. Further details: dose 2 mg/kg, route oral. The conditions noted are these: in vivo.
Data set [11] in a line: Intrinsic clearance in human hepatocytes assessed per 10^6 cells. It is filed as ADME, cell-based, Liver, Hepatocyte.
Data set [12] can be described thus: Elimination half life in Beagle dog at 0.030 mg/kg, iv administered as single infusion over 1 hr. The class given is ADME, organism-based, Canis lupus familiaris. Also on record: dose 0.03 mg/kg, route intravenous. The settings on record: in vivo, 0.03 mg/kg, read-out: beta t1/2 (converted).
Data set [13] in a line: Cmax in CD rat at 2 mg/kg, po administered as single dose. The conditions noted are these: in vivo. The class given is ADME, organism-based. Also on record: dose 2 mg/kg, route oral.
Data set [14] is described as follows: Plasma clearance in CD rat at 1 mg/kg, iv administered as single bolus dose. The class given is ADME, organism-based. Further details: dose 1 mg/kg, route intravenous.
The nature of data set [15]: Volume of distribution in Beagle dog at 0.030 mg/kg, iv administered as infusion over 1 hr. The class given is ADME, organism-based, Canis lupus familiaris. Also on record: dose 0.03 mg/kg, route intravenous. The settings on record: in vivo, 0.03 mg/kg.
A short description of data set [16]: Plasma clearance in Beagle dog at 0.030 mg/kg, iv administered as infusion over 1 hr. The class given is ADME, organism-based, Canis lupus familiaris. Also on record: dose 0.03 mg/kg, route intravenous. The settings on record: 0.03 mg/kg.
The subject of another data set is Canis familiaris. The data set can be described thus: Increase of peak urethral pressure in iv dosed anesthetized dog stress urinary incontinence model at 20 to 45 nM of free plasma concentration relative to control. It is filed as functional, Canis lupus familiaris, Urethra.
Data set [17] can be described thus: Drug excretion in CD rat urine at 1 mg/kg, iv administered as single bolus dose. It is filed as ADME, organism-based. Further details: dose 1 mg/kg, route intravenous.

For `c1ccc(Cc2ncc3c(n2)CCNCC3)cc1`, the Vd in data set [1] was determined as 8.9 L/kg; in [15] it was 3.5 L/kg. Besides, the microsomal CLint in data set [2] is 28 µL/min/mg; in data set [3], under 7 µL/min/mg; in [5], under 7 µL/min/mg. This molecule showed a bioavailability in [4] of 44%. The half-life in [6] was 2.8 h; in data set [12], 3.4 h. The pKa in [7] is 8.5. The hepatocyte CLint in [8] was under 5 µL/min/1e6 cells; in data set [9], 15 µL/min/1e6 cells; in data set [11], under 5 µL/min/1e6 cells. In the data set on Rattus norvegicus, this molecule registered an AUC of 290 ng·h/mL. Further, in [10], the Tmax is 0.25 h. In [13], this molecule registered a Cmax of 49 ng/mL. The clearance worked out at 51 mL/min/kg in data set [14] and 11.6 mL/min/kg in [16]. Also, the Activity in the data set on Canis familiaris came out at 20%. Further, in data set [17], the dose excreted came out at 10%.
